Assay results from patent publication US4760136A, “Chartreusin derivatives and salts thereof” (Ishihara Sangyo Kaisha, Ltd., priority 1984, dated 1988).
Like-named read-outs stand apart in the source and are kept apart here.

Columns and labels:
P-388 leukemia cells = test: Antitumor activity: P-388 leukemia cells inoculated intraperitoneally, drug administered intravenously, BDF1 mice; assay type: in vivo; settings: Mus musculus, P388, iv, read-out: T/C (%) of MST; for response vs control in vivo at 80 mg/kg: dose f: 80 mg/kg × 3, i.v. on days 1, 5 and 9; for response vs control in vivo at 20 mg/kg: dose b: 20 mg/kg × 3, i.v. on days 1, 5 and 9
Outline: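 Drug dosing was intravenous on the first, fifth and ninth days after intraperitoneal inoculation of P-388 leukemia cells (1×10^6 per mouse) into BDF1 mice. Vehicles were physiological saline alone, or saline with small amounts of sodium carboxymethyl cellulose or Tween-80.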

[1] = Acute toxicity, intravenous (once), ddY mice; assay type: in vivo; settings: mouse, in vivo, formulated per Preparation Example
Text: In Table 7 are shown acute toxicity values (LD50, mg/kg) in ddY mice in the case of intravenously administering (once) each of the compounds of this invention in the form of preparations shown in the Preparation Examples shown in Table 7.

[2] = dose c: 40 mg/kg × 3, i.v. on days 1, 5 and 9, BDF1 mice, P-388 i.p.

For `CO[C@H]1[C@@H](O)[C@@H](C)O[C@H](O[C@H]2[C@H](Oc3cccc4c(OC(=O)c5ccc(C#N)cc5)c5c(=O)oc6ccc(C)c7c(=O)oc(c34)c5c67)O[C@H](C)[C@@H]3OC(c4ccccc4Cl)O[C@@H]32)[C@@H]1O` (stereo partly shown) [Compound No. 187], the response vs control in vivo at 40 mg/kg (P-388 leukemia cells; [2]) was 130%, the response vs control in vivo at 80 mg/kg (P-388 leukemia cells; BDF1 mice, P-388 i.p.) was 216% and the LD50 ([1]; iv) was at least 80 mg/kg.
For `COC1C(O)C(C)OC(OC2C(Oc3cccc4c(OC(=O)C(CNC(=O)OCc5ccccc5)C(C)C)c5c(=O)oc6ccc(C)c7c(=O)oc(c34)c5c67)OC(C)C3OC(c4ccccc4)OC32)C1O` (stereo not shown) [compound 70], the response vs control in vivo at 20 mg/kg (P-388 leukemia cells; BDF1 mice, P-388 i.p.) was 135%, the response vs control in vivo at 40 mg/kg (P-388 leukemia cells; [2]) was 181% and the LD50 ([1]; iv) was at least 40 mg/kg.
With `CCCC(=O)Oc1c2cccc(O[C@@H]3O[C@H](C)[C@@H]4OC(c5ccccc5OC)O[C@@H]4[C@H]3O[C@H]3O[C@H](C)[C@H](O)[C@H](OC)[C@H]3O)c2c2oc(=O)c3c(C)ccc4oc(=O)c1c2c43` (stereo partly shown) [compound 216] the response vs control in vivo at 40 mg/kg (P-388 leukemia cells) was 171% and the LD50 [1] was at least 40 mg/kg.
In the case of `CO[C@H]1[C@@H](O)[C@@H](C)O[C@H](O[C@H]2[C@H](Oc3cccc4c(OC(=O)c5cccc(N(C)C)c5)c5c(=O)oc6ccc(C)c7c(=O)oc(c34)c5c67)O[C@H](C)[C@@H]3OC(C)(C)O[C@@H]32)[C@@H]1O` [compound 209], the response vs control in vivo at 40 mg/kg (P-388 leukemia cells; [2]) is reported as 134%, the response vs control in vivo at 80 mg/kg (P-388 leukemia cells; BDF1 mice, P-388 i.p.) is reported as 192% and the LD50 ([1]; iv) is reported as at least 80 mg/kg.
`COC1C(O)C(C)OC(OC2C(Oc3cccc4c(OC(=O)CCNC(=O)c5ccccc5)c5c(=O)oc6ccc(C)c7c(=O)oc(c34)c5c67)OC(C)C3OC(c4ccc(Br)cc4)OC32)C1O` (stereo not shown) [compound 123] showed a response vs control in vivo at 40 mg/kg (P-388 leukemia cells; [2]) of 135% and an LD50 ([1]; iv) of at least 40 mg/kg.
`COC1C(O)C(C)OC(OC2C(Oc3cccc4c(OC(=O)CCNC(=O)C(Cl)(Cl)Cl)c5c(=O)oc6ccc(C)c7c(=O)oc(c34)c5c67)OC(C)C3OC(c4ccccc4)OC32)C1O` (stereo not shown) [Compound No. 22] gave a response vs control in vivo at 20 mg/kg (P-388 leukemia cells; BDF1 mice, P-388 i.p.) of 181% and an LD50 ([1]; iv) of at least 40 mg/kg.
With `COC1C(O)C(C)OC(OC2C(Oc3cccc4c(OC(=O)C(C)C)c5c(=O)oc6ccc(C)c7c(=O)oc(c34)c5c67)OC(C)C3OC(C)(C)OC32)C1O` (stereo not shown) [compound 222] the response vs control in vivo at 40 mg/kg (P-388 leukemia cells; [2]) was 144%, the response vs control in vivo at 80 mg/kg (P-388 leukemia cells; BDF1 mice, P-388 i.p.) was 162% and the LD50 ([1]; iv) was at least 80 mg/kg.
Molecule `CCC(C)C(=O)Oc1c2cccc(OC3OC(C)C4OC5(CCCCC5)OC4C3OC3OC(C)C(O)C(OC)C3O)c2c2oc(=O)c3c(C)ccc4oc(=O)c1c2c43` (stereo not shown) [compound 241] has a response vs control in vivo at 80 mg/kg (P-388 leukemia cells; BDF1 mice, P-388 i.p.) of 135% and an LD50 ([1]; iv) of at least 80 mg/kg.
`CO[C@H]1[C@@H](O)[C@@H](C)O[C@H](O[C@H]2[C@H](Oc3cccc4c(OC(=O)C5CC5)c5c(=O)oc6ccc(C)c7c(=O)oc(c34)c5c67)O[C@H](C)[C@@H]3OC(C)(C)O[C@@H]32)[C@@H]1O` [Compound No. 177] showed a response vs control in vivo at 40 mg/kg (P-388 leukemia cells; [2]) of 153%, a response vs control in vivo at 80 mg/kg (P-388 leukemia cells; BDF1 mice, P-388 i.p.) of 208% and an LD50 ([1]; iv) of at least 80 mg/kg.
Work on `COC1C(O)C(C)OC(OC2C(Oc3cccc4c(OC(=O)CCNC=O)c5c(=O)oc6ccc(C)c7c(=O)oc(c34)c5c67)OC(C)C3OC(CCc4ccccc4)OC32)C1O` (stereo not shown) [compound 83] yielded a response vs control in vivo at 40 mg/kg (P-388 leukemia cells; [2]) of 144%, a response vs control in vivo at 80 mg/kg (P-388 leukemia cells; BDF1 mice, P-388 i.p.) of 208% and an LD50 ([1]; iv) of at least 80 mg/kg.
In the case of `COC1C(O)C(C)OC(OC2C(Oc3cccc4c(OC(=O)CCCCCCCNC(=O)C(F)(F)F)c5c(=O)oc6ccc(C)c7c(=O)oc(c34)c5c67)OC(C)C3OC(c4ccccc4)OC32)C1O` (stereo not shown) [compound 77], the response vs control in vivo at 20 mg/kg (P-388 leukemia cells; BDF1 mice, P-388 i.p.) is reported as 135%, the response vs control in vivo at 40 mg/kg (P-388 leukemia cells; [2]) is reported as 186% and the LD50 ([1]; iv) is reported as at least 40 mg/kg.
With `CO[C@H]1[C@@H](O)[C@@H](C)O[C@H](O[C@H]2[C@H](Oc3cccc4c(OC(=O)c5ccc(C(F)(F)F)cc5)c5c(=O)oc6ccc(C)c7c(=O)oc(c34)c5c67)O[C@H](C)[C@@H]3OC(C)(C)O[C@@H]32)[C@@H]1O` [Compound No. 182] the response vs control in vivo at 40 mg/kg (P-388 leukemia cells; [2]) was 153%, the response vs control in vivo at 80 mg/kg (P-388 leukemia cells; BDF1 mice, P-388 i.p.) was 192% and the LD50 ([1]; iv) was at least 80 mg/kg.
`COC1C(O)C(C)OC(OC2C(Oc3cccc4c(OC(=O)C(CC[S+](C)[O-])NC(=O)OCc5ccccc5)c5c(=O)oc6ccc(C)c7c(=O)oc(c34)c5c67)OC(C)C3OC(C)(C)OC32)C1O` (stereo not shown) [compound 102] gave a response vs control in vivo at 80 mg/kg (P-388 leukemia cells; BDF1 mice, P-388 i.p.) of 187% and an LD50 ([1]; iv) of at least 100 mg/kg.
Molecule `COC1C(O)C(C)OC(OC2C(Oc3cccc4c(OC(=O)CCC(C)=O)c5c(=O)oc6ccc(C)c7c(=O)oc(c34)c5c67)OC(C)C3OC(C)(C)OC32)C1O` (stereo not shown) [Compound No. 156] has a response vs control in vivo at 40 mg/kg (P-388 leukemia cells; [2]) of 160%, a response vs control in vivo at 80 mg/kg (P-388 leukemia cells; BDF1 mice, P-388 i.p.) of 218% and an LD50 ([1]; iv) of at least 80 mg/kg.
With `CO[C@H]1[C@@H](O)[C@@H](C)O[C@H](O[C@H]2[C@H](Oc3cccc4c(OC(=O)COc5ccccc5)c5c(=O)oc6ccc(C)c7c(=O)oc(c34)c5c67)O[C@H](C)[C@@H]3OC(C)(C)O[C@@H]32)[C@@H]1O` [compound 205] the response vs control in vivo at 40 mg/kg (P-388 leukemia cells; [2]) was 153%, the response vs control in vivo at 80 mg/kg (P-388 leukemia cells; BDF1 mice, P-388 i.p.) was 173% and the LD50 ([1]; iv) was at least 80 mg/kg.
